Common to all, as to format: physicochemical
Series [1] can be described thus: T1 relaxivity (r1) by inversion recovery on Bruker mq60 Minispec, 1.4 T, 37° C., TRIS buffer pH 7.4. The settings on record: for r1 (relaxivity of manganese complexes): pH 7.4, 37° C., 1.4 Tesla. Here is the method: (§1) Liquid chromatography-electrospray mass spectrometry (LC-MS) was performed using an Agilent 1100 Series apparatus with an LC/MSD trap and Daly conversion dynode detector with UV detection at 220, 254 and 280 nm. The methods used on this system are as follows: (a) Luna C18 column (100×2 mm); eluent A: H2O/0.1% formic acid, B: MeCN/0.1% formic acid; gradient: 5% B to 95% B over 9 minutes; flow rate 0.8 mL/min (used for characterization of organic compounds), and (b) Kromasil C18 column (250×4.6 mm); eluent C: 95% MeCN/5% 10 mM ammonium acetate, D: 10 mM ammonium acetate; gradient 5% C to 8% C over 14 minutes; flow rate 0.8 ml/min (used for characterization of manganese complexes). Reversed-phase semipreparative purification was performed on a Rainin Dynamax HPLC system with UV detection at 254 nm using a Polaris C18 column. The method used for purification is as follows: The mobile phase A was 50 mM ammonium acetate buffer, pH 6.5 and mobile phase B was a mixture of 5% 50 mM ammonium acetate buffer, pH 6.5/95% MeCN. Starting from 5% B, the fraction of B increased to 8% over 23 minutes. The column was washed with 100% B for 2 minutes and then ramped to 5% B. The system was re-equilibrated at 5% B for 3 minutes. Relaxivity measurements were performed on a Bruker mq60 Minispec at 1.4 T and 37° C. Manganese concentrations were determined using an Agilent 7500a ICP-MS system. All samples were diluted with 0.1% Triton X-100 in 5% nitric acid containing 20 ppb of Lu (as internal standard). The ratio of Mn (54.94)/Lu(174.97) was used to quantify the manganese concentration. A linear calibration curve ranging from 0.1 ppb to 200 ppb was generated daily for the quantification. UV-Vis spectra were recorded on a SpectraMax M2 spectrophotometer using quartz cuvette with a 1 cm path length. Cyclic voltammetry of Mn^IIHBET, Mn^IIEDTA and Mn^IIIHBET was recorded using a Nuvant EZstat pro potentiostat in TRIS buffer (pH=7.4), containing 0.5M KNO3 as supporting electrolyte, at 100 mVs-1 scan rate. Glassy carbon was used as the working electrode, Ag/AgCl served as the reference electrode and Pt wire was used as the auxiliary electrode. The K4FeCN6/K3FeCN6 couple was used as the internal standard.
T1 was measured with an inversion recovery pulse sequence taking 10 inversion times. Relaxivity was determined from the slope of a plot of 1/T1 vs. concentration of in TRIS buffer, pH=7.4 at 37° C. The concentration of manganese in each stock solution was determined using ICP-MS.
All chemicals and solvents were purchased commercially and used without further purification. NMR spectra were recorded on either a 500 MHz or 400 MHz Varian spectrometers. Chemical shifts are reported in δ (ppm). For ^1H and ^13C NMR spectra, the residual solvent peaks were used as internal reference, except for the ^13C NMR of the ligand where tertiary-butanol was used as the internal reference. Liquid chromatography-electrospray mass spectrometry (LC-MS) was performed using an Agilent 1100 Series apparatus with an LC/MSD trap and Daly conversion dynode detector with UV detection at 220, 254 and 280 nm. The methods used on this system are as follows: (a) Luna C18 column (100×2 mm); eluent A: H2O/0.1% formic acid, B: MeCN/0.1% formic acid; gradient: 5% B to 95% B over 9 minutes; flow rate 0.8 mL/min (used for characterization of organic compounds), and (b) Kromasil C18 column (250×4.6 mm); eluent C: 95% MeCN/5% 10 mM ammonium acetate, D: 10 mM ammonium acetate; gradient 5% C to 8% C over 14 minutes; flow rate 0.8 ml/min (used for characterization of manganese complexes). Reversed-phase semipreparative purification was performed on the Rainin Dynamax HPLC system with UV detection at 254 nm using a Polaris C18 column. The method used for purification is as follows: The mobile phase A was 50 mM ammonium acetate buffer, pH 6.5 and mobile phase B was a mixture of 5% 50 mM ammonium acetate buffer, pH 6.5/95% MeCN. Starting from 5% B, the fraction of B increased to 8% over 23 minutes. […]

Series [2] is described as follows: UV spectrum as a function of pH (phenol deprotonation pKa). The conditions noted are these: fit of UV absorbance vs pH. As to the method: To probe the speciation of the manganese complexes in solution, pH titrations of 1:1 Mn^2+:ligand were performed using a 1 N NaOH under N2 atmosphere (FIG. 21).
To determine the species that exists in these two pH ranges the UV spectrum as a function of pH was monitored (see FIGS. 22-24).

Series [3] is described as follows: Cyclic voltammetry of the Mn(III)/Mn(II) redox couple. The conditions noted are these: for Half-cell potential vs. normal hydrogen electrode (NHE): pH 7.4, vs. NHE. Here is the method:
Potentials are vs. K4Fe(CN)6/K3Fe(CN)6; and in (b), a Cottrell plot of the Mn^2+/Mn^3+ couple—ia, (decreasing line) and ic (increasing line) vs. √v, where v=scan rate.
as §1

Series [4] in a line: Kinetics of reduction of Mn^III-HBET by glutathione. The settings on record: 37° C., pH 7.4; first-order in both [GSH] and [Mn^III-HBET]. As to the method:
A series of kinetic experiments were conducted at 37° C. (pH 7.4) to determine the empirical rate law for the reduction of Mn^III-HBET by glutathione. […] This feature allowed us to easily monitor the reduction of Mn^III-HBET over time. We measured initial reaction rates at three different glutathione concentrations (5 mM, 10 mM and 20 mM). For each glutathione concentration, the reaction was performed at four different initial concentrations of M^III-HBET (0.3 mM, 0.4 mM, 0.5 mM and 0.6 mM). Based on these experiments, we determined that the reaction was first-order in both [GSH] and [Mn^III-HBET] with an overall second-order rate constant of (3.8±0.3)×10^−1 M^−1 s^−1.
This series of kinetic experiments were conducted at 37° C. (pH 7.4) to determine the empirical rate law for the reduction of Mn^III-HBET by glutathione. […] Initial reaction rates were measured at a three different glutathione concentrations (5 mM, 10 mM and 20 mM). […]
Here, the observed rate constant (kobs) is simply the product of the actual rate constant (k) and [GSH], t is time, and the subscripts ‘t’ and ‘o’ refer to the concentration at time T or the initial concentration, respectively. […] Based on these experiments, we determined that the reaction was first-order in both [GSH] and [Mn^III-HBET] with an overall second-order rate constant of (3.8±0.3)×10^−1 M^−1 s^−1.

Series [5] is described as follows: Stability of manganese complexes in buffers. As to the method: The stability of the manganese complexes were measured in different buffers using concentrations similar to those found in the blood plasma (1 mM phosphate buffer, 25 mM sodium bicarbonate buffer and 0.1 mM citrate buffer). A solution, 0.5 mM, of the manganese complex was incubated in the respective buffers at 37° C. (pH=7.4) and the species were then quantified on the LC-MS using the method as described earlier. The manganese complexes (0.5 mM) were also treated with EDTA (0.5 mM) in TRIS buffer (pH=7.4) and incubated at 37° C. for 1 hour. The species were then quantified on the LC-MS using the method as described earlier.

Series [6] can be described thus: Relaxivity at different field strengths in pH 7.4 HEPES buffer. The settings on record: 37° C. Here is the method: The relaxivities of the compounds for Formulas (XI) and (XII) were determined at different field strengths at 37° C. in pH 7.4 HEPES buffer. The relaxivity was obtained from the slope of a plot of 1/T1 vs. [Mn] for different Mn concentrations. Since Formula (XI) contains 6 Mn per molecule, the ionic (per Mn) and molecular (per molecule) relaxivities are given below.

Series [7] is described as follows: Stability of solutions at room temperature. As to the method: 40 binds Mn^II in a 1:1 ratio. This complex was prepared and characterized in situ. Mn^II was carefully titrated to 40 and Mn:40 stoichiometry was monitored by LC-MS or T2-relaxometry as describe above. […] 433.1.

With `O=C([O-])CN(CC(=O)[O-])C1CCCCC1N(CC(=O)[O-])Cc1ccccc1[O-].[Mn+2].[Na+].[Na+]` (racemic) [Compound 20, Na2[Mn^IIcycHBET]], the “r1 (relaxivity of manganese complexes)” value in series [1] was 3.26 mM⁻¹ s⁻¹. The “pKa for ionization of the phenol” value in series [2] is on record as 7.95.

As for `O=C([O-])CN(CC(=O)[O-])C1CCCCC1N(CC(=O)[O-])Cc1ccccc1[O-].[Mn+3].[Na+]` (racemic) [Compound 21, Na[Mn^IIIcycHBET]], in series [1], the “r1 (relaxivity of manganese complexes)” value is 1.56 mM⁻¹ s⁻¹. The “Half-cell potential vs. normal hydrogen electrode (NHE)” value in series [3] came to 365 mV.

For `O=C([O-])CN(CC(=O)[O-])C1CCCCC1N(CC(=O)[O-])Cc1cc([N+](=O)[O-])ccc1[O-].[Mn+2].[Na+].[Na+]` (racemic) [Compound 30, Na2[Mn^IIcycHBET-NO2)]], the “r1 (relaxivity of manganese complexes)” value in series [1] is 2.30 mM⁻¹ s⁻¹.

As for `O=C([O-])CN(CC(=O)[O-])C1CCCCC1N(CC(=O)[O-])Cc1cc([N+](=O)[O-])ccc1[O-].[Mn+3].[Na+]` (racemic) [Compound 31, Na[Mn^IIIcycHBET-NO2]], the “Half-cell potential vs. normal hydrogen electrode (NHE)” value in series [3] is reported as 488 mV.

Regarding `O=C([O-])CN(CCN(CC(=O)[O-])Cc1ccccc1[O-])CC(=O)[O-].[Mn+3].[Na+]` [Compound 5, Na[Mn^IIIHBET]], the T1 relaxivities in series [1] (1.4 T, Tris buffered saline pH 7.4, 37° C.) was 1.05 mM⁻¹ s⁻¹. Moreover, the “r1 (relaxivity of manganese complexes)” value in series [1] worked out at 1.05 mM⁻¹ s⁻¹. In addition, the “overall second-order rate constant of reduction by glutathione” value in series [4] is given as “(3.8±0.3)×10^−1 M^−1 s^−1”. In series [5], the “stability in phosphate and carbonate buffers” value is “stable”.

Consider `COc1ccc([O-])c(CN(CCN(CC(=O)[O-])CC(=O)[O-])CC(=O)[O-])c1.[Mn+2].[Na+].[Na+]` [Compound 9, Na2[Mn^IIHBET-OMe]], for which the “r1 (relaxivity of manganese complexes)” value in series [1] is 3.11 mM⁻¹ s⁻¹. Also, the “Half-cell potential vs. normal hydrogen electrode (NHE)” value in series [3] is listed as 344 mV. Moreover, the “pKa for ionization of the phenol” value in series [2] is 7.91.

On to `O=C([O-])CN(CCN(CC(=O)[O-])Cc1cc([N+](=O)[O-])ccc1[O-])CC(=O)[O-].[Mn+2].[Na+].[Na+]` [Compound 13, Na2[Mn^IIHBET-NO2]], for which the “r1 (relaxivity of manganese complexes)” value in series [1] came to 2.28 mM⁻¹ s⁻¹. Besides, the “pKa for ionization of the phenol” value in series [2] is 4.84.

`O=C([O-])CN(CCN(CC(=O)[O-])Cc1cc([N+](=O)[O-])ccc1[O-])CC(=O)[O-].[Mn+3].[Na+]` [Compound 14, Na[Mn^IIIHBET-NO2]]: the “r1 (relaxivity of manganese complexes)” value in series [1] turned out to be 0.34 mM⁻¹ s⁻¹. The “Half-cell potential vs. normal hydrogen electrode (NHE)” value in series [3] stood at 476 mV.

Consider `O=C([O-])CN(CCN(CC(=O)[O-])Cc1ccccc1[O-])Cc1ccccc1[O-].[Mn+3]` [Mn^III-HBED, reference compound], for which, in series [3] (irreversible oxidation / quasi-reversible reduction peaks, TRIS buffer pH 7.4), the “half-cell potentials (Mn^II/Mn^III)” value was 0.016 V.

On to Mn6[N3P3-(TyOH-EDTA)6] [Compound 55], for which the “Relaxivity r1 at 0.47T (per Mn)” value in series [6] (0.47T, ionic (per Mn)) stood at 9.07 mM⁻¹ s⁻¹. In series [6] (0.47T, molecular (per molecule, 6 Mn)), the “Relaxivity r1 at 0.47T per molecule” value is 54.4 mM⁻¹ s⁻¹. Also, the “Relaxivity r1 at 1.4T (per Mn)” value in series [6] (1.4T, ionic (per Mn)) was determined as 9.28 mM⁻¹ s⁻¹. The “Relaxivity r1 at 1.4T per molecule” value in series [6] (1.4T, molecular (per molecule, 6 Mn)) was 55.7 mM⁻¹ s⁻¹. In addition, the “Relaxivity r1 at 4.7T (per Mn)” value in series [6] (4.7T, ionic (per Mn)) was found to be 6.54 mM⁻¹ s⁻¹. Further, the “Relaxivity r1 at 4.7T per molecule” value in series [6] (4.7T, molecular (per molecule, 6 Mn)) is 39.2 mM⁻¹ s⁻¹. The “Relaxivity r1 at 9.4T (per Mn)” value in series [6] (9.4T, ionic (per Mn)) was 4.94 mM⁻¹ s⁻¹. Moreover, the “Relaxivity r1 at 9.4T per molecule” value in series [6] (9.4T, molecular (per molecule, 6 Mn)) is 29.6 mM⁻¹ s⁻¹. Moreover, the “Relaxivity r1 at 11.7T (per Mn)” value in series [6] (11.7T, ionic (per Mn)) was 3.57 mM⁻¹ s⁻¹. The “Relaxivity r1 at 11.7T per molecule” value in series [6] (11.7T, molecular (per molecule, 6 Mn)) was 21.4 mM⁻¹ s⁻¹.

As for Na[Mn(TyOH-EDTA)] [Compound 52], the “Relaxivity r1 at 0.47T (per Mn)” value in series [6] (0.47T, ionic (per Mn)) worked out at 3.60 mM⁻¹ s⁻¹. For the same compound, the “Relaxivity r1 at 1.4T (per Mn)” value in series [6] (1.4T, ionic (per Mn)) worked out at 2.80 mM⁻¹ s⁻¹. The “Relaxivity r1 at 9.4T (per Mn)” value in series [6] (9.4T, ionic (per Mn)) was determined as 3.65 mM⁻¹ s⁻¹. The “Relaxivity r1 at 11.7T (per Mn)” value in series [6] (11.7T, ionic (per Mn)) worked out at 3.05 mM⁻¹ s⁻¹.

For the compound [Mn(CyP3A)] [Compound 41], in series [1] (1.41T, 37° C., pH 7.4 Tris buffer), the “Relaxivities r1 at 1.41T” value stood at 2.50 mM⁻¹ s⁻¹. In series [7], the stability of solutions entry is given as “indefinitely stable”.

For the origin of these results see patent US20150336996A1, “MANGANESE-BASED MAGNETIC RESONANCE CONTRAST AGENTS” (THE GENERAL HOSPITAL CORPORATION, priority 2013, published 2015).
